From patent US20260115203A1 (LABORATORIOS LITAPHAR, S.L., priority 2023, published 2026)
Entries after “also recorded” stand apart in the source; their conditions may differ. Like-named read-outs stand apart in the source and are kept apart here.

What was measured:
[1] = compared with parent drug mifepristone; cited from earlier work
[2] = molecular target: T1, human glucocorticoid receptor (Homo sapiens, UniProt P04150); details: cited from earlier work
T1 sequence (P04150 1-777): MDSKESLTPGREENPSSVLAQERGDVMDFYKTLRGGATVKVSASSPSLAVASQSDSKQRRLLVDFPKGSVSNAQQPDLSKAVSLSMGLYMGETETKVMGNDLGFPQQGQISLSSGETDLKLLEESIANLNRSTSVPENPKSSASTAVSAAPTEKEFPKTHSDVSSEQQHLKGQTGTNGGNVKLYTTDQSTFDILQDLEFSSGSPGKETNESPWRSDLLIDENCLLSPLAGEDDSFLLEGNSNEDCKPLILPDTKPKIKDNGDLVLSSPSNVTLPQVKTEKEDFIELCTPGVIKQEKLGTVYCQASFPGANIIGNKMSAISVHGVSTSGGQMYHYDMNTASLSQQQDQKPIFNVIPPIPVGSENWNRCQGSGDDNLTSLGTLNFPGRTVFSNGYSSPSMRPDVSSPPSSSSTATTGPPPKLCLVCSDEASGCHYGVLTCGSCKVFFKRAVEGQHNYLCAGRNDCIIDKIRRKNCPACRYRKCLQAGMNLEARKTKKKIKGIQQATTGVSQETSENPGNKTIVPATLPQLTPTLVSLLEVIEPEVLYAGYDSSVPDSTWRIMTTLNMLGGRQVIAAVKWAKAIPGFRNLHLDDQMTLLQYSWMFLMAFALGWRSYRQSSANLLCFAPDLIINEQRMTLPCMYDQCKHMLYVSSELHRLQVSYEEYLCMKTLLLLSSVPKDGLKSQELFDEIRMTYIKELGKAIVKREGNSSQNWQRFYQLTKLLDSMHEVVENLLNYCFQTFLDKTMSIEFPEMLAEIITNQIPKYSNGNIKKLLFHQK

[3] = molecular target: T2, human progesterone receptor (Homo sapiens, UniProt P06401); details: cited from earlier work
T2 sequence (P06401 1-933): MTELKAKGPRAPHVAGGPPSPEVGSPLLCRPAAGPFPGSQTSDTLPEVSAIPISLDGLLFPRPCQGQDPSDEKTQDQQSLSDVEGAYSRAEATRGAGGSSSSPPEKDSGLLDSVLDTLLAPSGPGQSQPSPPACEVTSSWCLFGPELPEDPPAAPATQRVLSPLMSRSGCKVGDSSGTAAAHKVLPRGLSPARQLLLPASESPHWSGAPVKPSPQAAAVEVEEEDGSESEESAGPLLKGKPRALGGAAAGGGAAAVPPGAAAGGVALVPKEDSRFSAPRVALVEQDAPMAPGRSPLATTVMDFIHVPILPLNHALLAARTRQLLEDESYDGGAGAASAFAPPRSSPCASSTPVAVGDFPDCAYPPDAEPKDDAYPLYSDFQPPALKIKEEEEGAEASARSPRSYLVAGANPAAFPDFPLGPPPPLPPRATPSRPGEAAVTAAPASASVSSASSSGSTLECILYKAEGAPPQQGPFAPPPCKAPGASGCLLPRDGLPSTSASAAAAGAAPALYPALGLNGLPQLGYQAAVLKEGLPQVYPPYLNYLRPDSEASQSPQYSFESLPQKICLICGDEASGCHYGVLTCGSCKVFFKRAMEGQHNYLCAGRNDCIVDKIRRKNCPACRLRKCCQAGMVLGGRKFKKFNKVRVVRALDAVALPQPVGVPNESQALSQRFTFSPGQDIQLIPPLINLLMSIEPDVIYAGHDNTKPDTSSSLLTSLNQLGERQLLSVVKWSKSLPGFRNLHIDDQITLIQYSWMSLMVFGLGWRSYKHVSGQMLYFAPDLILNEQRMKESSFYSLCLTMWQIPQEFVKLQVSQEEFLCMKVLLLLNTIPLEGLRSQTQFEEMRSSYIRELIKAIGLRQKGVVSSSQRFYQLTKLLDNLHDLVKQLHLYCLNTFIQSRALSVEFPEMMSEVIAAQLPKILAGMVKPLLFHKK

[4] = test system: women with endometriosis; details: 50 mg orally daily, 6 months, cited from earlier work
[5] = test system: women with endometriosis; details: 100 mg orally daily, three months, cited from earlier work
[6] = test system: women with endometriosis; details: 5 mg orally daily, 6 months, cited from earlier work
[7] = test system: endometriosis in reproductive-age women; experiment: Randomized, double-blind clinical trial of mifepristone 2.5 mg and 5 mg vs. placebo (EudraCT 2018-002367-26), endometriosis associated pain by VAS; type: in vivo
Excerpt: Both mifepristone products were formulated as tablets with the following respective compositions: […]
The planned number of subjects to be included in the whole clinical trial was 490.
The principal inclusion criteria were: • [1] Premenopausal female, between 18 and 45 years of age inclusive, at the time of signing consent • [2] Patients with Endometriosis Associated Pelvic Pain (EAPP: i.e. any type of pelvic pain associated with endometriosis: nonmenstrual pelvic pain, dysmenorrhea, dyschezia and dyspareunia) as measured by Visual Analogue Scale (VAS)≥40 mm at least once in the previous 4 weeks from baseline visit • [3] Patients with a history of EAPP for at least the past 6 months prior to the initial screening visit • [4] Endometriosis diagnosed by laparoscopy and/or surgery in the past 10 years or less or diagnosed by MRI or transvaginal ultrasound in the past 5 years • [5] Patients with a history of regular menstrual cycles (21-35 days) while not being on any pharmacological treatment that could alter the menstrual cycle (e.g. oral contraceptive pills) • [6] Patients who agree to use only ibuprofen 400 mg as rescue medication up to a total daily dose of not more than 2400 mg • [7] Patients willing and able (e.g. mental and physical condition) to participate in all aspects of the study as evidenced by providing signed written informed consent • [8] Patient agrees to use double barrier contraception birth control methods (e.g. condom with spermicide) during the entire length of participation in the study. […] History of hypersensitivity or intolerance to the active substance or any of the excipients of the study medication • [2] Subject is pregnant or breast-feeding or is planning a pregnancy within the duration of the study or is less than 6 months postpartum, post-abortion, or post-lactation at the time of entry into the screening period • [3] Previous use of hormonal agents before the Screening visit: ≤24 weeks for GnRH agonists; ≤12 weeks for depot progestogens and danazol: ≤6 weeks for oral contraceptives • [4] Patients with history of any cancer (including breast cancer) and/or histological diagnosis of endometrial atypical hyperplasia at baseline (note: the combination of endometrial thickness<5 mm determined by transvaginal ultrasound and insufficient material for histological evaluation from the endometrial biopsy will be regarded as atrophic endometrium) • [5] Other clinically significant gynaecological condition causing abnormal uterine bleeding already known or identified on Screening such as severe adenomyosis or symptomatic uterine fibroids requiring treatment • [6] Subject has current or history of abnormal genital bleeding • [7] Presence of ovarian cyst of unknown etiology • [8] Cervical smear with pathological findings: class III or higher according to Papanicolaou, class IIp or higher according to the Munich Ill nomenclature or ASC-US or higher according to the Bethesda system • [9] Surgical treatment of endometriosis within 3 months prior to the screening visit • [10] Presence of chronic pain other than pain due to endometriosis • [11] Hepatic insufficiency • [12] History of, or complications of, thrombosis, embolism, or serious cardiac, respiratory (severe asthma not adequately controlled by treatment), renal, hematologic, endocrine diseases • [13] Uncontrolled or inadequately controlled hypertension at the time of screening with a resting supine systolic or diastolic blood pressure>180 mmHg or >95 mmHg, respectively • [14] Subject with hereditary porphyria • [15] Abnormal laboratory findings considered by the investigator as clinically significant • [16] Positive results for HBs-Ag, anti-HCV and HIV-1/HIV-2-antibodies • [17] […]

[8] = test system: women with laparoscopic diagnostic of endometriosis; details: cited from earlier work

In the case of CC#C[C@]1(O)CC[C@H]2[C@@H]3CCC4=CC(=O)CCC4=C3[C@@H](c3ccc(NC)cc3)C[C@@]21C [RU 42633], the serum concentrations [1] is listed as “in a similar range as those of the parent drug”, the “affinity toward the human glucocorticoid receptor” value [2] is listed as “considerable affinity” and the “affinity toward the human progesterone receptor” value [3] is listed as “considerable affinity”.

For CC#C[C@]1(O)CC[C@H]2[C@@H]3CCC4=CC(=O)CCC4=C3[C@@H](c3ccc(N(C)C)cc3)C[C@@]21C [mifepristone], the amenorrhea / hypoestrogenism ([4]; all patients) is given as “amenorrhea without hypoestrogenism”, the “pelvic pain and uterine cramping” value ([4]; nine women) is given as “improved in all patients” and the “regression of endometriosis (laparoscopic assessment, AFS score)” value [4] is given as 55%. For the same compound, the amenorrhea ([5]; six women) was “reported by all study participants”, the pelvic pain ([5]; six women) was “all women also reported improvement” and the “extent of endometriosis (follow-up laparoscopy)” value [5] was “no significant change”. The cyclic bleeding ([6]; seven women) was “ceased in all patients”, the pelvic pain ([6]; seven women) was “improved in six of seven patients” and the “decrease of mean endometriosis scores” value [6] was “decreased by only %”. The “pain relief, 2.5 mg daily dose compared with 5 mg daily dose” value ([7]; 2.5 mg (T1) vs 5 mg (T2) per day) was “more pronounced than the 5 mg group; also recorded: more effective than the 5 mg dose; also recorded: less pelvic pain than with a daily dose of 5 mg”, the “pain associated with extra-pelvic endometriosis” value ([7]; 2.5 mg tablet every day as monotherapy, lesions in cesarean sections or ovarian endometriomas) was “effective to reduce the pain associated with extra-pelvic endometriosis; also recorded: appropriate pain relief” and the endometrial thickening ([7]; 5 mg dose compared with 2.5 mg dose) was “markedly greater endometrial thickening than the lower dose of 2.5 mg”. For the same compound, the “EAP (VAS)” value ([7]; T1, 2.5 mg mifepristone per day, 1 month of treatment) was 29.19, the “EAP (VAS)” value ([7]; T1, 2.5 mg mifepristone per day, 2 months of treatment) was 24.61 and the “EAP (VAS)” value ([7]; T1, 2.5 mg mifepristone per day, 3 months of treatment) was 23.63. For the same compound, the “EAP (VAS)” value ([7]; T1, 2.5 mg mifepristone per day, 4 months of treatment) was 22.31, the “EAP (VAS)” value ([7]; T1, 2.5 mg mifepristone per day, month 0 (before treatment)) was 32.81 and the “EAP (VAS)” value ([7]; T2, 5 mg mifepristone per day, 1 month of treatment) was 29.30. For the same compound, the “EAP (VAS)” value ([7]; T2, 5 mg mifepristone per day, 2 months of treatment) was 26.11, the “EAP (VAS)” value ([7]; T2, 5 mg mifepristone per day, 3 months of treatment) was 24.58 and the “EAP (VAS)” value ([7]; T2, 5 mg mifepristone per day, 4 months of treatment) was 25.01. For the same compound, the “EAP (VAS)” value ([7]; T2, 5 mg mifepristone per day, month 0 (before treatment)) was 32.81, the “intensity of pain associated with endometriosis” value ([7]; daily dose of 2.5 mg alone, no analgesic rescue medication) was “significant reduction” and the “amenorrhea and clinical improvement, 2.5 mg group vs 5 and 10 mg groups” value ([8]; 2.5 mg oral dose) was “significantly lower percentages of amenorrhea and clinical improvement than the 5 and 10 mg groups”. For the same compound, the “use of analgesics (rescue therapy), 2.5 mg group vs 5 and 10 mg groups” value ([8]; 2.5 mg oral dose) was “significantly greater use of analgesics”, the effectiveness against placebo ([8]; 2.5, 5 and 10 mg oral doses, all treatment groups) was “more effective than the placebo group” and the “clinical improvement, 5 mg vs 10 mg” value ([8]; after 90 and 180 days of treatment) was “no differences were observed”.

In the case of CC#C[C@]1(O)CC[C@H]2[C@@H]3CCC4=CC(=O)CCC4=C3[C@@H](c3ccc(N)cc3)C[C@@]21C [RU 42848], the serum concentrations [1] is listed as “in a similar range as those of the parent drug”, the “affinity toward the human glucocorticoid receptor” value [2] is listed as “considerable affinity” and the “affinity toward the human progesterone receptor” value [3] is listed as “considerable affinity”.

For CN(C)c1ccc([C@H]2C[C@@]3(C)[C@@H](CC[C@]3(O)C#CCO)[C@@H]3CCC4=CC(=O)CCC4=C32)cc1 [RU 42698], the serum concentrations [1] is listed as “in a similar range as those of the parent drug”, the “affinity toward the human glucocorticoid receptor” value [2] is listed as “considerable affinity” and the “affinity toward the human progesterone receptor” value [3] is listed as “considerable affinity”.
